{"source": "paper PMC3833348", "about": "(MedChemComm, 2013)", "key": {"[1]": {"assay": "Solubility in aqueous buffer", "format": "physicochemical", "settings": "as compared to Aba-C10"}, "[2]": {"molecular_target": "T1, P-gp (Homo sapiens, UniProt P08183)", "T1 sequence (P08183 whole entry)": "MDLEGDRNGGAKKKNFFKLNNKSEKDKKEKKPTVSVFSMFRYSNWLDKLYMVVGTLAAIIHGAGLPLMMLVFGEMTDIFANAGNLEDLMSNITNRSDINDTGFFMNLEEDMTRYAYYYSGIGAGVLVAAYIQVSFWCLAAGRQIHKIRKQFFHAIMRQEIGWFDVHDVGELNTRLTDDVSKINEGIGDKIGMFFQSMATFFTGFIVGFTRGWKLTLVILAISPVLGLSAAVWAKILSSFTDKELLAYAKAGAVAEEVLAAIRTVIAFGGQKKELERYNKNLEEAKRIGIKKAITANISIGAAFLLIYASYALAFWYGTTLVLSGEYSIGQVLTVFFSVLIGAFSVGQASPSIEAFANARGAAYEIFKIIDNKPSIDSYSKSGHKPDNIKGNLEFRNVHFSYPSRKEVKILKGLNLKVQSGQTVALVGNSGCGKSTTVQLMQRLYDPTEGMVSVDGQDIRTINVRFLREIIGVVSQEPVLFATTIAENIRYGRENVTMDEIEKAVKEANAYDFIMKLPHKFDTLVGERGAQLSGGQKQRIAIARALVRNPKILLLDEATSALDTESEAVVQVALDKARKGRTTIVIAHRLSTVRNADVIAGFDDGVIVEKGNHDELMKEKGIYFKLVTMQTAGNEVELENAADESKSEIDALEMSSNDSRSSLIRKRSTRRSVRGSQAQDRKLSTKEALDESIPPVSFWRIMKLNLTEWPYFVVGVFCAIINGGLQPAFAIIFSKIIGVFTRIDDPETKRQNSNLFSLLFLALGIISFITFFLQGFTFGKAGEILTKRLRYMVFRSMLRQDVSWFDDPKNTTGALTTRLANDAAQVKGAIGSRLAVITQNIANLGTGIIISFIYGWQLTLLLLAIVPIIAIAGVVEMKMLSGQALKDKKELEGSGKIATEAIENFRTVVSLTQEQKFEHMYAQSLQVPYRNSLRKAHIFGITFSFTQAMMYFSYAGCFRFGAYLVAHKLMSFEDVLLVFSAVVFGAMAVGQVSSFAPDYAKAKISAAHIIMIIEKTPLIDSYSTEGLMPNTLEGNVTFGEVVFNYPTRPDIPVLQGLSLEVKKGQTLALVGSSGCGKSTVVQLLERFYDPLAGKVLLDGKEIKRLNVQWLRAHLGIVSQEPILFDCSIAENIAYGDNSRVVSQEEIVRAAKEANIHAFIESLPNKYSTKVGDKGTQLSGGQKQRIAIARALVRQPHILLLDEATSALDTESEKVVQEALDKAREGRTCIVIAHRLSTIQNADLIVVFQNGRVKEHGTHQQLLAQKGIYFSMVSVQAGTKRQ", "assay": "Substrate accumulation assays in MCF-7/DX1 cells", "format": "cell-based"}, "[3]": {"molecular_target": "T1, P-gp", "assay": "Inhibition of P-gp-mediated efflux of NBD-Aba in hCMEC/D3 cells", "format": "cell-based"}, "[4]": {"test_system": "P-gp", "settings": "cited from earlier work"}}, "data": [{"compound": "Nc1nc(NC2CC2)c2ncn([C@H]3C=C[C@@H](COC(=O)CCCCCCCCC(=O)OC[C@@H]4C=C[C@H](n5cnc6c(NC7CC7)nc(N)nc65)C4)C3)c2n1", "note": "[Aba-C8]", "values": [{"measurement": "Solubility in aqueous buffer", "setting": "[1]", "result": "more favorable solubility"}, {"measurement": "Fold decrease of potency in MCF-7/DX1 cells versus 12D7-MDR", "setting": "[2]; NBD-Aba as substrate", "result": "~6", "unit": "fold"}, {"measurement": "Fold decrease of potency in MCF-7/DX1 cells versus hCMEC/D3", "setting": "[2]; NBD-Aba as substrate", "result": "about 3 fold"}, {"measurement": "Inhibition of efflux of each of the substrates in MCF-7/DX1 cells", "setting": "[2]; substrates BODIPY-prazosin, doxorubicin, [3H]-daunomycin and NBD-Aba", "result": "effectively inhibit efflux"}]}, {"compound": "Nc1nc(NC2CC2)c2ncn([C@H]3C=C[C@@H](COC(=O)CCCCCCCCCCC(=O)OC[C@@H]4C=C[C@H](n5cnc6c(NC7CC7)nc(N)nc65)C4)C3)c2n1", "note": "[Aba-C10]", "values": [{"measurement": "Fold more potent than monomeric abacavir", "setting": "[3]", "result": "greater than 500 fold"}]}, {"compound": "Nc1nc(NC2CC2)c2ncn([C@H]3C=C[C@@H](CO)C3)c2n1", "note": "[abacavir, reference compound]", "values": [{"measurement": "Effect on transport in MCF-7/DX1 cells", "setting": "[2]; up to a concentration of 100 µM, data not shown", "result": "no effect on transport"}, {"measurement": "Fold increase in brain levels, P-gp-null mice versus wild-type mice", "setting": "[4]", "result": 20, "unit": "fold"}]}]}
